Measured values: PubChem BioAssay (NCI)
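Grown in 96-well plates, cells were treated for 48 hours with each compound at five concentrations. Insufficient inhibition: endpoint recorded as highest concentration tested. TGI marks complete inhibition of growth.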

Legend:
Experiment in all cases: inhibition of tumour cell growth, NCI panel, 48 h
DU-145 prostate = test system: DU-145 prostate
UACC-62 melanoma = test system: UACC-62 melanoma
HS 578T breast = test system: HS 578T breast
SN12C renal = test system: SN12C renal
ACHN renal = test system: ACHN renal
OVCAR-4 ovarian = test system: OVCAR-4 ovarian
IGROV1 ovarian = test system: IGROV1 ovarian
A498 renal = test system: A498 renal
HOP-62 NSCLC = test system: HOP-62 NSCLC
786-0 renal = test system: 786-0 renal
MALME-3M melanoma = test system: MALME-3M melanoma
RPMI-8226 leukemia = test system: RPMI-8226 leukemia
M14 melanoma = test system: M14 melanoma
SR leukemia = test system: SR leukemia
SK-MEL-2 melanoma = test system: SK-MEL-2 melanoma
OVCAR-3 ovarian = test system: OVCAR-3 ovarian
SK-MEL-28 melanoma = test system: SK-MEL-28 melanoma
COLO 205 colon = test system: COLO 205 colon
OVCAR-8 ovarian = test system: OVCAR-8 ovarian
SF-268 CNS = test system: SF-268 CNS
NCI-H522 lung = test system: NCI-H522 lung
T-47D breast = test system: T-47D breast
SK-OV-3 ovarian = test system: SK-OV-3 ovarian
SNB-19 CNS = test system: SNB-19 CNS
BT-549 breast = test system: BT-549 breast
EKVX NSCLC = test system: EKVX NSCLC
KM12 colon = test system: KM12 colon
UACC-257 melanoma = test system: UACC-257 melanoma
MDA-MB-435 = test system: MDA-MB-435
HOP-92 NSCLC = test system: HOP-92 NSCLC
U251 CNS = test system: U251 CNS
HT29 colon = test system: HT29 colon
UO-31 renal = test system: UO-31 renal
CAKI-1 renal = test system: CAKI-1 renal
SK-MEL-5 melanoma = test system: SK-MEL-5 melanoma
NCI-H226 lung = test system: NCI-H226 lung
PC-3 prostate = test system: PC-3 prostate
OVCAR-5 ovarian = test system: OVCAR-5 ovarian
LOX IMVI melanoma = test system: LOX IMVI melanoma
MDA-MB-231 breast = test system: MDA-MB-231 breast
NCI/ADR-RES ovarian = test system: NCI/ADR-RES ovarian
RXF 393 renal = test system: RXF 393 renal
HCT-15 colon = test system: HCT-15 colon
HL-60(TB) leukemia = test system: HL-60(TB) leukemia
SW-620 colon = test system: SW-620 colon
MOLT-4 leukemia = test system: MOLT-4 leukemia
HCT-116 colon = test system: HCT-116 colon
K-562 leukemia = test system: K-562 leukemia
A549 NSCLC = test system: A549 NSCLC
MDA-N = test system: MDA-N
MCF7 breast = test system: MCF7 breast
TK-10 renal = test system: TK-10 renal
SF-295 CNS = test system: SF-295 CNS
NCI-H23 lung = test system: NCI-H23 lung
HCC-2998 colon = test system: HCC-2998 colon
CCRF-CEM leukemia = test system: CCRF-CEM leukemia
NCI-H460 lung = test system: NCI-H460 lung
SF-539 CNS = test system: SF-539 CNS

Q: Which results are given for CC(C)(C)OCC1NC(=O)[C@@H]2Cc3c([nH]c4ccccc34)C(C3CCCCC3)N2C1=O (stereo partly drawn)?
A: TGI (DU-145 prostate): > 100 µM; TGI (UACC-62 melanoma): 31.2 µM; TGI (HS 578T breast): 51.8 µM; TGI (SN12C renal): 43.1 µM; TGI (ACHN renal): 68.6 µM; TGI (OVCAR-4 ovarian): > 100 µM; TGI (IGROV1 ovarian): 57.7 µM; TGI (A498 renal): > 100 µM; TGI (HOP-62 NSCLC): 39.6 µM; TGI (786-0 renal): 50.2 µM; TGI (MALME-3M melanoma): 42.8 µM; TGI (RPMI-8226 leukemia): 49 µM; TGI (M14 melanoma): 42 µM; TGI (SR leukemia): 45.4 µM; TGI (SK-MEL-2 melanoma): 40.8 µM; TGI (OVCAR-3 ovarian): 33.8 µM; TGI (SK-MEL-28 melanoma): 77.6 µM; TGI (COLO 205 colon): 51.4 µM; TGI (OVCAR-8 ovarian): 87.3 µM; TGI (SF-268 CNS): 95.6 µM; TGI (NCI-H522 lung): 31.4 µM; TGI (T-47D breast): 71.1 µM; TGI (SK-OV-3 ovarian): > 100 µM; TGI (SNB-19 CNS): > 100 µM; TGI (BT-549 breast): 56.8 µM; TGI (EKVX NSCLC): 67.9 µM; TGI (KM12 colon): 44 µM; TGI (UACC-257 melanoma): 41 µM; TGI (MDA-MB-435): 35.7 µM; TGI (HOP-92 NSCLC): 55.7 µM; TGI (U251 CNS): 38.5 µM; TGI (HT29 colon): 35.7 µM; TGI (UO-31 renal): 98.8 µM; TGI (CAKI-1 renal): 53.8 µM; TGI (SK-MEL-5 melanoma): 29 µM; TGI (NCI-H226 lung): 74.9 µM; TGI (PC-3 prostate): 46.3 µM; TGI (OVCAR-5 ovarian): 50.8 µM; TGI (LOX IMVI melanoma): 33.3 µM; TGI (MDA-MB-231 breast): 35.1 µM; TGI (NCI/ADR-RES ovarian): 57.5 µM; TGI (RXF 393 renal): 38.4 µM; TGI (HCT-15 colon): 69 µM; TGI (HL-60(TB) leukemia): 52.1 µM; TGI (SW-620 colon): 85.5 µM; TGI (MOLT-4 leukemia): 49.6 µM; TGI (HCT-116 colon): 30.5 µM; TGI (K-562 leukemia): 61.6 µM; TGI (A549 NSCLC): > 100 µM; TGI (MDA-N): 37.4 µM; TGI (MCF7 breast): > 100 µM; TGI (TK-10 renal): 67.6 µM; TGI (SF-295 CNS): 40.8 µM; TGI (NCI-H23 lung): 57.8 µM

Q: What does the source list for O=C(NNc1cn[nH]c(=O)n1)c1cccc2nc3ccccc3nc12?
A: TGI (DU-145 prostate): > 100 µM; TGI (UACC-62 melanoma): > 100 µM; TGI (HS 578T breast): > 100 µM; TGI (SN12C renal): > 100 µM; TGI (HCC-2998 colon): > 100 µM; TGI (ACHN renal): 60.1 µM; TGI (OVCAR-4 ovarian): > 100 µM; TGI (IGROV1 ovarian): > 100 µM; TGI (A498 renal): > 100 µM; TGI (786-0 renal): > 100 µM; TGI (MALME-3M melanoma): > 100 µM; TGI (RPMI-8226 leukemia): > 100 µM; TGI (M14 melanoma): > 100 µM; TGI (CCRF-CEM leukemia): > 100 µM; TGI (SR leukemia): 26.5 µM; TGI (SK-MEL-2 melanoma): > 100 µM; TGI (OVCAR-3 ovarian): > 100 µM; TGI (NCI-H460 lung): > 100 µM; TGI (SK-MEL-28 melanoma): > 100 µM; TGI (COLO 205 colon): > 100 µM; TGI (OVCAR-8 ovarian): > 100 µM; TGI (SF-268 CNS): > 100 µM; TGI (T-47D breast): > 100 µM; TGI (SK-OV-3 ovarian): > 100 µM; TGI (SNB-19 CNS): > 100 µM; TGI (BT-549 breast): > 100 µM; TGI (EKVX NSCLC): > 100 µM; TGI (KM12 colon): > 100 µM; TGI (UACC-257 melanoma): > 100 µM; TGI (MDA-MB-435): > 100 µM; TGI (HOP-92 NSCLC): > 100 µM; TGI (U251 CNS): > 100 µM; TGI (HT29 colon): > 100 µM; TGI (CAKI-1 renal): > 100 µM; TGI (SK-MEL-5 melanoma): > 100 µM; TGI (NCI-H226 lung): > 100 µM; TGI (PC-3 prostate): > 100 µM; TGI (OVCAR-5 ovarian): > 100 µM; TGI (LOX IMVI melanoma): > 100 µM; TGI (MDA-MB-231 breast): 84.3 µM; TGI (NCI/ADR-RES ovarian): > 100 µM; TGI (RXF 393 renal): 56.8 µM; TGI (HCT-15 colon): > 100 µM; TGI (HL-60(TB) leukemia): > 100 µM; TGI (SW-620 colon): > 100 µM; TGI (MOLT-4 leukemia): 27.9 µM; TGI (HCT-116 colon): > 100 µM; TGI (K-562 leukemia): > 100 µM; TGI (A549 NSCLC): > 100 µM; TGI (MDA-N): > 100 µM; TGI (MCF7 breast): > 100 µM; TGI (TK-10 renal): 67 µM; TGI (SF-539 CNS): > 100 µM; TGI (SF-295 CNS): > 100 µM; TGI (NCI-H23 lung): > 100 µM

Q: For O=C(CCc1ccc(O)cc1)NCCc1cccc(O)c1, which TGI (DU-145 prostate) is on record?
A: > 50 µM

Q: And the TGI (UACC-62 melanoma)?
A: > 50 µM

Q: What about the TGI (HS 578T breast) of the same compound?
A: > 50 µM

Q: What about the TGI (SN12C renal) of the same compound?
A: > 50 µM

Q: And the TGI (ACHN renal)?
A: > 50 µM

Q: What about the TGI (OVCAR-4 ovarian) of the same compound?
A: > 50 µM

Q: What about the TGI (IGROV1 ovarian) of the same compound?
A: > 50 µM

Q: What about the TGI (A498 renal) of the same compound?
A: > 50 µM

Q: And the TGI (HOP-62 NSCLC)?
A: > 50 µM

Q: And the TGI (786-0 renal)?
A: > 50 µM

Q: What about the TGI (MALME-3M melanoma) of the same compound?
A: > 50 µM

Q: What about the TGI (M14 melanoma) of the same compound?
A: > 50 µM

Q: And the TGI (CCRF-CEM leukemia)?
A: > 50 µM

Q: What about the TGI (SR leukemia) of the same compound?
A: > 50 µM

Q: What about the TGI (SK-MEL-2 melanoma) of the same compound?
A: > 50 µM

Q: What about the TGI (OVCAR-3 ovarian) of the same compound?
A: > 50 µM

Q: What about the TGI (NCI-H460 lung) of the same compound?
A: > 50 µM

Q: What about the TGI (SK-MEL-28 melanoma) of the same compound?
A: > 50 µM

Q: What about the TGI (COLO 205 colon) of the same compound?
A: > 50 µM

Q: And the TGI (OVCAR-8 ovarian)?
A: > 50 µM

Q: What about the TGI (SF-268 CNS) of the same compound?
A: > 50 µM

Q: What about the TGI (NCI-H522 lung) of the same compound?
A: > 50 µM

Q: What about the TGI (T-47D breast) of the same compound?
A: > 50 µM

Q: And the TGI (SK-OV-3 ovarian)?
A: > 50 µM

Q: What about the TGI (SNB-19 CNS) of the same compound?
A: > 50 µM

Q: What about the TGI (BT-549 breast) of the same compound?
A: > 50 µM

Q: And the TGI (EKVX NSCLC)?
A: > 50 µM

Q: And the TGI (KM12 colon)?
A: > 50 µM

Q: And the TGI (UACC-257 melanoma)?
A: > 50 µM

Q: And the TGI (MDA-MB-435)?
A: > 50 µM

Q: And the TGI (HOP-92 NSCLC)?
A: > 50 µM

Q: And the TGI (U251 CNS)?
A: > 50 µM

Q: And the TGI (HT29 colon)?
A: > 50 µM

Q: And the TGI (UO-31 renal)?
A: > 50 µM

Q: And the TGI (CAKI-1 renal)?
A: > 50 µM

Q: And the TGI (SK-MEL-5 melanoma)?
A: > 50 µM

Q: What about the TGI (PC-3 prostate) of the same compound?
A: > 50 µM

Q: What about the TGI (OVCAR-5 ovarian) of the same compound?
A: > 50 µM

Q: And the TGI (LOX IMVI melanoma)?
A: > 50 µM

Q: What about the TGI (MDA-MB-231 breast) of the same compound?
A: > 50 µM

Q: What about the TGI (NCI/ADR-RES ovarian) of the same compound?
A: > 50 µM

Q: And the TGI (RXF 393 renal)?
A: > 50 µM

Q: And the TGI (HCT-15 colon)?
A: > 50 µM

Q: And the TGI (HL-60(TB) leukemia)?
A: > 50 µM

Q: And the TGI (MOLT-4 leukemia)?
A: > 50 µM

Q: And the TGI (HCT-116 colon)?
A: > 50 µM

Q: And the TGI (K-562 leukemia)?
A: > 50 µM

Q: What about the TGI (A549 NSCLC) of the same compound?
A: > 50 µM

Q: What about the TGI (MDA-N) of the same compound?
A: > 50 µM

Q: And the TGI (MCF7 breast)?
A: > 50 µM

Q: What about the TGI (TK-10 renal) of the same compound?
A: > 50 µM

Q: What about the TGI (SF-539 CNS) of the same compound?
A: > 50 µM

Q: And the TGI (SF-295 CNS)?
A: > 50 µM

Q: What about the TGI (NCI-H23 lung) of the same compound?
A: > 50 µM
